This is an account of results in PMC9691366, “Modulating the pharmacokinetic profile of Actinium-225-labeled macropa-derived radioconjugates by dual targeting of PSMA and albumin” (Theranostics, 2022).

The test system of the assay is LNCaP cells. As to the kind of experiment: Clonogenic survival assay. The conditions noted are these: for inhibition of colony formation: 1 h exposure; for EC50 for 1 h treatment: clonogenic survival of LNCaP cells, 95% confidence interval in brackets. Type of assay: cell-based, human. Here is the method:
Figure 3 Clonogenic survival of LNCaP cells after treatment with [^225Ac]Ac-mcp-M-alb-PSMA or [^225Ac]Ac-mcp-D-alb-PSMA for (A) 1 h or (B) 4 h, respectively. Cells were exposed to different activity concentrations of 225Ac-labeled PSMA conjugates for the indicated treatment time and thereafter supplemented with fresh medium. Eight days later, colonies formed were stained and counted by digital analysis. Data points represent the mean colony number of three samples, normalized to values obtained for the untreated reference samples.
Colony formation of LNCaP cells upon exposure to increasing activity concentrations of both ^225Ac-radioconjugates was analyzed as previously reported with slight modifications. Briefly, 6000 LNCaP cells were seeded in 6-well microplates (Greiner Bio-One GmbH, Frickenhausen, Germany) and cultivated overnight to allow cell adhesion. The cell culture medium was replaced by serum-free RPMI-1640 medium (2 mL/well) and the microplates were further incubated at 37 °C. After 1 h, five different activity concentrations (0.05, 0.5, 1, 5, and 50 kBq/mL) of the ^225Ac-radioconjugates were added in triplicate. After 1 or 4 h of incubation at 37 °C, the supernatants were replaced by fresh RPMI-1640 medium with 10% FCS (2 mL/well) and plates were incubated at 37 °C for 8 d. Finally, the cell culture medium was discarded and colonies were stained with 0.5% crystal violet in 50% methanol (1 mL/well) for 30 min, after which the plates were rinsed three times with deionized water and subsequently air-dried. The plates were scanned with an Amersham Typhoon 5 Scanner (Cytiva Europe GmbH, Freiburg, Germany) and the colonies were counted using the Image-Quant TL software (Version 8.1, Cytiva Europe GmbH, Freiburg, Germany).

Marks after values point to notes of the source that are not given here.

For `O=C(O)CC[C@H](NC(=O)N[C@@H](CCCCNC(=O)[C@H](Cc1ccc2ccccc2c1)NC(=O)[C@H]1CC[C@H](CNC(=O)[C@H](CCCCn2cc(COc3cc(CN4CCOCCOCCN(Cc5cc(OCc6cn(CCCC[C@H](NC(=O)[C@H](CCC(=O)O)NC(=O)CCCc7ccc(I)cc7)C(=O)NC[C@H]7CC[C@H](C(=O)N[C@@H](Cc8ccc9ccccc9c8)C(=O)NCCCC[C@H](NC(=O)N[C@@H](CCC(=O)O)C(=O)O)C(=O)O)CC7)nn6)cc(C(=O)O)n5)CCOCCOCC4)nc(C(=O)O)c3)nn2)NC(=O)[C@H](CCC(=O)O)NC(=O)CCCc2ccc(I)cc2)CC1)C(=O)O)C(=O)O` [[^225Ac]Ac-mcp-D-alb-PSMA, metal not drawn], the “EC50 for 1 h treatment” value is given as 0.0519 (0.0353 to 0.0753)^# kBq/mL. For the same compound, for the setting “0.05 kBq/mL”, the “inhibition of colony formation” value is given as “about 50%”. Also, the “inhibition of colony formation” value (0.5 kBq/mL) was “virtually abrogated clonogenic activity”.
With `O=C(O)CC[C@H](NC(=O)N[C@@H](CCCCNC(=O)[C@H](Cc1ccc2ccccc2c1)NC(=O)[C@H]1CC[C@H](CNC(=O)[C@H](CCCCn2cc(COc3cc(CN4CCOCCOCCN(Cc5cccc(C(=O)O)n5)CCOCCOCC4)nc(C(=O)O)c3)nn2)NC(=O)[C@H](CCC(=O)O)NC(=O)CCCc2ccc(I)cc2)CC1)C(=O)O)C(=O)O` [[^225Ac]Ac-mcp-M-alb-PSMA, metal not drawn], the “EC50 for 1 h treatment” value is 0.5233 (0.4010 to 0.6767)^# kBq/mL. Also, the “inhibition of colony formation” value (0.5 kBq/mL) is listed as “about 50%”. Also, the “inhibition of colony formation” value (5 kBq/mL) was “almost complete inhibition of colony formation”.
